{"source": "patent US8158605B2", "about": "“Azacytidine analogues and uses thereof” (Mount Sinai School of Medicine, priority 2007, dated 2012)", "key": {"5637": {"tested_on": "5637", "test": "WST-1 cytotoxicity assay", "format": "cell-based", "experimental": "(§1) Human promyelocytic leukemia cell lines HL60, human histiocytic lymphoma U937, human chronic myelogenous leukemia K562, human acute T cell Jurkat, breast adenocarcinoma MCF-7, urinary bladder carcinoma 5637, prostate carcinoma DU-145 were purchased from American Type Culture Collection. All cell lines except Jurkat were maintained in RPMI 1640 medium (Gibco, Glasgow, UK) supplemented with 10% heat-inactivated fetal calf serum (FCS), 100 U/ml of penicillin, and […] streptomycin, in an atmosphere of 5% CO2 at 37° C. Jurkat cells were cultured in RPMI 1640 medium supplemented with 1.5 g/L sodium bicarbonate, 4.5 g/L glucose, 10 mM sodium pyruvate, and 10% FCS, 100 U/ml of penicillin, and […] streptomycin.\n(§2) MCF-7, DU-145, and 5637 cells (1×10^4/ml) were plated and allowed to adhere and spread for 24 hours. […] Cultures were incubated with WST-1 reagent for 1 hour. The production of formazan was measured by a microplate reader (Bio-Tek Instruments, Elx 800) at 450 nm with a reference wavelength of 650 nm. Growth inhibition was determined as compared to untreated cells (%). IC50 values were calculated using CalcuSyn software (Biosoft)."}, "DU145": {"tested_on": "DU145", "test": "WST-1 cytotoxicity assay", "format": "cell-based", "conditions": "Homo sapiens, DU-145", "experimental": "as §1, §2"}, "HL60": {"tested_on": "HL60", "test": "WST-1 cytotoxicity assay", "format": "cell-based", "conditions": "Homo sapiens, HL-60", "experimental": "as §1, §2"}, "Jurkat": {"tested_on": "Jurkat", "test": "WST-1 cytotoxicity assay", "format": "cell-based", "conditions": "Homo sapiens", "experimental": "as §1, §2"}, "K562": {"tested_on": "K562", "test": "WST-1 cytotoxicity assay", "format": "cell-based", "conditions": "Homo sapiens", "experimental": "as §1, §2"}, "MCF-7": {"tested_on": "MCF-7", "test": "WST-1 cytotoxicity assay", "format": "cell-based", "conditions": "Homo sapiens, MCF7", "experimental": "as §1, §2"}, "U937": {"tested_on": "U937", "test": "WST-1 cytotoxicity assay", "format": "cell-based", "conditions": "Homo sapiens, U-937", "experimental": "as §1, §2"}, "[1]": {"tested_on": "HL60, K562, and U937 cells", "test": "Apoptosis induction in leukemia cells (AO/EB microscopy, Annexin-V/PI flow cytometry)", "format": "cell-based, human", "conditions": "0.5-4 μM, 24 hours; AO/EB staining and Annexin-V/PI flow cytometry", "experimental": "Apoptotic cells were defined using morphological criteria and fluorescence-activated cell sorting (FACS) after staining with Annexin V-FITC. For morphologic analysis, 1 μl of stock solution containing 100 μg/ml AO and 100 μg/ml EB was added to 25 μl cells suspension. The apoptitic cells and apoptotic bodies were analyzed with the aid of a fluorescence microscopy. The percentage of apoptotic cells was calculated after counting total 300 cells. For FACS analysis, […] to 5×10^6 cells were washed with PBS and then labeled with Annexin V-FICS and propidium iodide (PI) in medium-binding reagent according to the Annexin V-FITC apoptosis detection kit instruction provided by the manufacturer. Fluorescent signals of FITC and PI were detected, respectively, at 518 nm and at 620 nm on FACSCAN (Becton Dickinson, San Jose, Calif.). […] The data was analyzed by the CellQuest program (Becton Dickinson). For each analysis, 10,000 cells events were recorded.\nThe percentage of apoptotic cells was determined with the aid of a fluoresence microscope after staining with acridine orange and ethidium bromide (See FIG. 2A). […] The percentage of apoptotic cells was determined by flow cytometry using Annexin-V and PI staining. […] (See FIGS. 2a and 2b)"}, "[2]": {"tested_on": "U937, HL60 and K562 cells", "test": "Differentiating induction (NBT reduction, benzidine staining)", "format": "cell-based, human", "conditions": "repeated exposure for 11 (HL60) or 14 (U937, K562) days", "experimental": "Cell differentiation was studied in terms of morphology. […] After initial treatment on day 0, cells were exposed to the new portions of drugs on day 4, 7, and 10. The differentiation was evaluated by NBT reduction assay (U937 and HL60) or by benzidine staining (K562)."}, "[3]": {"test": "Metabolic stability in pooled human plasma at 37° C.", "format": "in vitro ADME", "protocol": "The mixture was incubated in a shaking water batch at 37° C. Aliquots (100 μl) of the incubation solutions were withdrawn in triplicate (n=3) at the designed incubation period (0, 15, 30, 60 and 120 minutes), and plasma protein was immediately precipitated using acetonitrile containing 0.1% formic acid (300 μl). […] After centrifugation, the supernatant was directly introduced for LC-MS-MS analysis."}, "estrogen receptor beta": {"tested_on": "estrogen receptor beta", "test": "Gene expression of estrogen receptor β by real-time PCR in MCF-7 cells", "format": "cell-based", "conditions": "MCF-7, 1 μM, 5 days", "experimental": "The gene expression (determined on RNA level) of estrogen receptor beta was determined by quantitative real-time PCR. (TaqMan). MCF-7 mammary carcinoma cells were grown in estrogen deficient media (Phenol-Red-free RPMI with 2% glutamine and 10% charcoal-dextran treated fetal calf serum). […] One untreated control was included as control. The cells were harvested after 5 days of exposure to the compounds; they were harvested by trypsination, washed and shock frozen in liquid nitrogen.\nThe total RNA was extracted from approximately 10^6 shock frozen MCF-7 cells. The RNA concentration and purity was measured, and RNA was transcribed into cDNA using TaqMan Reverse Trancription reagents (N808-0234). Real-time quantification was performed using standard protocols and premixed PCR reagents. The primer-probe mixes were ordered from Applied Biosystems, ER β (ID Hs00230957_ml) and housekeeping gene hydrocylmethyl-bilane synthase HMBS (ID Hs00609297_ml). Gene expression was calculated using the comparative delta-delta Ct method."}}, "data": [{"smiles": "CCCCCCCC/C=C/CCCCCCCC(=O)OC[C@H]1O[C@@H](n2cnc(N)nc2=O)[C@H](O)[C@@H]1O", "note": "[CP, 5-azacytidine 5′-elaidate]", "values": [{"measurement": "IC50", "setting": "5637; 5637, 24 hour treatment", "result": 9.39, "unit": "µM"}, {"measurement": "IC50", "setting": "5637; 5637, 48 hour treatment", "result": 5.95, "unit": "µM"}, {"measurement": "IC50", "setting": "5637; 5637, 72 hour treatment", "result": 3.52, "unit": "µM"}, {"measurement": "IC50", "setting": "DU145; DU145, 24 hour treatment", "result": 6.79, "unit": "µM"}, {"measurement": "IC50", "setting": "DU145; DU145, 48 hour treatment", "result": 6.31, "unit": "µM"}, {"measurement": "IC50", "setting": "DU145; DU145, 72 hour treatment", "result": 5.88, "unit": "µM"}, {"measurement": "IC50", "setting": "HL60; HL60, 24 hour treatment", "result": 3.19, "unit": "µM"}, {"measurement": "IC50", "setting": "HL60; HL60, 48 hour treatment", "result": 3.6, "unit": "µM"}, {"measurement": "IC50", "setting": "HL60; HL60, 72 hour treatment", "result": 2.68, "unit": "µM"}, {"measurement": "IC50", "setting": "Jurkat; 24 hour treatment", "result": 1.19, "unit": "µM"}, {"measurement": "IC50", "setting": "Jurkat; 48 hour treatment", "result": 0.88, "unit": "µM"}, {"measurement": "IC50", "setting": "Jurkat; 72 hour treatment", "result": 0.84, "unit": "µM"}, {"measurement": "IC50", "setting": "K562; K562, 24 hour treatment", "result": 1.26, "unit": "µM"}, {"measurement": "IC50", "setting": "K562; K562, 48 hour treatment", "result": 0.92, "unit": "µM"}, {"measurement": "IC50", "setting": "MCF-7; MCF-7, 24 hour treatment", "result": 19.1, "unit": "µM"}, {"measurement": "IC50", "setting": "MCF-7; MCF-7, 48 hour treatment", "result": 9.32, "unit": "µM"}, {"measurement": "IC50", "setting": "MCF-7; MCF-7, 72 hour treatment", "result": 9.99, "unit": "µM"}, {"measurement": "IC50", "setting": "U937; U937, 24 hour treatment", "result": 0.44, "unit": "µM"}, {"measurement": "IC50", "setting": "U937; U937, 48 hour treatment", "result": 0.6, "unit": "µM"}, {"measurement": "IC50", "setting": "U937; U937, 72 hour treatment", "result": 0.87, "unit": "µM"}, {"measurement": "number of apoptotic cells", "setting": "[1]", "result": "concentration-dependent increase in the number of apoptotic cells"}, {"measurement": "differentiation induction", "setting": "[2]", "result": "did not induce significant differentiation"}, {"measurement": "half-life at 0.1 μM", "setting": "[3]; 0.1 μM", "result": 2.68, "unit": "h"}, {"measurement": "% Remaining of initial (mean ± SD, n = 3)", "setting": "[3]; 0.1 μM, 0 min", "result": 100, "unit": "%"}, {"measurement": "% Remaining of initial (mean ± SD, n = 3)", "setting": "[3]; 0.1 μM, 15 min", "result": "95.8 ± 3.0", "unit": "%"}, {"measurement": "% Remaining of initial (mean ± SD, n = 3)", "setting": "[3]; 0.1 μM, 30 min", "result": "95.0 ± 2.0", "unit": "%"}, {"measurement": "% Remaining of initial (mean ± SD, n = 3)", "setting": "[3]; 0.1 μM, 60 min", "result": "92.1 ± 3.4", "unit": "%"}, {"measurement": "% Remaining of initial (mean ± SD, n = 3)", "setting": "[3]; 0.1 μM, 120 min", "result": "59.0 ± 1.6", "unit": "%"}, {"measurement": "half-life at 1 μM", "setting": "[3]; 1 μM", "result": 2.17, "unit": "h"}, {"measurement": "% Remaining of initial (mean ± SD, n = 3)", "setting": "[3]; 1 μM, 0 min", "result": 100, "unit": "%"}, {"measurement": "% Remaining of initial (mean ± SD, n = 3)", "setting": "[3]; 1 μM, 15 min", "result": "93.3 ± 1.1", "unit": "%"}, {"measurement": "% Remaining of initial (mean ± SD, n = 3)", "setting": "[3]; 1 μM, 30 min", "result": "88.9 ± 1.1", "unit": "%"}, {"measurement": "% Remaining of initial (mean ± SD, n = 3)", "setting": "[3]; 1 μM, 60 min", "result": "79.8 ± 2.6", "unit": "%"}, {"measurement": "% Remaining of initial (mean ± SD, n = 3)", "setting": "[3]; 1 μM, 120 min", "result": "52.5 ± 3.1", "unit": "%"}, {"measurement": "half-life at 3 μM", "setting": "[3]; 3 μM", "result": 2.35, "unit": "h"}, {"measurement": "% Remaining of initial (mean ± SD, n = 3)", "setting": "[3]; 3 μM, 0 min", "result": 100, "unit": "%"}, {"measurement": "% Remaining of initial (mean ± SD, n = 3)", "setting": "[3]; 3 μM, 15 min", "result": "99.0 ± 3.5", "unit": "%"}, {"measurement": "% Remaining of initial (mean ± SD, n = 3)", "setting": "[3]; 3 μM, 30 min", "result": "96.0 ± 3.0", "unit": "%"}, {"measurement": "% Remaining of initial (mean ± SD, n = 3)", "setting": "[3]; 3 μM, 60 min", "result": "85.4 ± 3.4", "unit": "%"}, {"measurement": "% Remaining of initial (mean ± SD, n = 3)", "setting": "[3]; 3 μM, 120 min", "result": "56.6 ± 1.6", "unit": "%"}, {"measurement": "half-life at 10 μM", "setting": "[3]; 10 μM", "result": 1.43, "unit": "h"}, {"measurement": "% Remaining of initial (mean ± SD, n = 3)", "setting": "[3]; 10 μM, 0 min", "result": 100, "unit": "%"}, {"measurement": "% Remaining of initial (mean ± SD, n = 3)", "setting": "[3]; 10 μM, 15 min", "result": "96.0 ± 2.0", "unit": "%"}, {"measurement": "% Remaining of initial (mean ± SD, n = 3)", "setting": "[3]; 10 μM, 30 min", "result": "93.1 ± 0.0", "unit": "%"}, {"measurement": "% Remaining of initial (mean ± SD, n = 3)", "setting": "[3]; 10 μM, 60 min", "result": "77.1 ± 3.1", "unit": "%"}, {"measurement": "% Remaining of initial (mean ± SD, n = 3)", "setting": "[3]; 10 μM, 120 min", "result": "39.1 ± 1.7", "unit": "%"}, {"measurement": "half-life at 30 μM", "setting": "[3]; 30 μM", "result": 1.82, "unit": "h"}, {"measurement": "% Remaining of initial (mean ± SD, n = 3)", "setting": "[3]; 30 μM, 0 min", "result": 100, "unit": "%"}, {"measurement": "% Remaining of initial (mean ± SD, n = 3)", "setting": "[3]; 30 μM, 15 min", "result": "97.7 ± 3.5", "unit": "%"}, {"measurement": "% Remaining of initial (mean ± SD, n = 3)", "setting": "[3]; 30 μM, 30 min", "result": "90.4 ± 2.6", "unit": "%"}, {"measurement": "% Remaining of initial (mean ± SD, n = 3)", "setting": "[3]; 30 μM, 60 min", "result": "78.5 ± 1.7", "unit": "%"}, {"measurement": "% Remaining of initial (mean ± SD, n = 3)", "setting": "[3]; 30 μM, 120 min", "result": "47.4 ± 1.1", "unit": "%"}, {"measurement": "Ct ER β", "setting": "estrogen receptor beta", "result": 32.97}, {"measurement": "delta", "setting": "estrogen receptor beta", "result": 7.06}, {"measurement": "Delta delta", "setting": "estrogen receptor beta; versus untreated", "result": "−2.40"}]}]}
